For test [1], the system named is human ileum monolayer culture. In words: Sustained inhibition of apical acid secretion in human organoid monolayer cell cultures (ileum). The format is cell-based. The note with it: Homo sapiens, 48 h; 1 μM apical, dosed day 6, apical media pH day 8, vs DMSO. As to the method:
(§1) Basal media (BM) consisted of advanced DMEM/F12 containing 10 mM HEPES Invitrogen, 15630-080), 1:100 Glutamax (Invitrogen, 35050-061), and 1:100 penicillin/streptomycin (Invitrogen, 15140-122). Supplemented basal media (SBM) contained 1:100 N2 (Invitrogen, 17502-048), 1:50 B27 (Invitrogen, 12587-010), 1 mM N-acetylcysteine (Sigma, A9165), and 10 nM [Leu15]-gastrin I (Sigma, G9145). Growth factors used included 50 ng per mL mouse EGF (Peprotech, 315-09), 100 ng per mL mouse noggin (Peprotech, 250-38), 500 ng per mL human R-spondin 1 (R&D, 4645-RS), 100 ng per mL mouse Wnt-3a (R&D, 1324-WN), 20 μM. Y-27632 (Tocris, 1254), 10 mM nicotinamide (Sigma, N0636), 500 nM A83-01 (Tocris, 2939), 10 μM SB202190 (Tocris, 1264). Transwells were 0.4 μm pore polyester membrane 24-well Transwell inserts (Corning). Cultures were incubated at 37° C. in 5% CO2.
(§2) Human ileum organoids were cultured in WENRNAS (Wnt, EGF, noggin, R-spondin1, Nicotinamide, A83-01, SB202190) and typically grown for 7-12 days before being used to plate monolayer cultures. On day 0, organoid cultures embedded in Matrigel were treated with TrypLE Express to break organoids into small pieces and/or single cells. The cells were resuspended to 0.5×10^6 cells/mL in SBM containing WENRAY (Wnt, EGF, noggin, R-spondin1, A83-01, Y-27632). Following this step, 200 μL of cell suspension was plated into the apical side of a 24-well Transwell (100,000 cells/well) and 600 μL of SBM with WENRAY was added to the basolateral side. Ileum cells were differentiated with ENRA (EGF, noggin, R-spondin 1, A83-01) on day 3. The color of apical compartment turns from pink or orange to yellow due to the increase in NHE3 expression after differentiation.
(§3) Each human ileum monolayer culture well was washed twice with fresh SBM on the apical side on day 6 before compound dosing. All compound stocks were 10 mM dissolved in DMSO. Each compound stock was individually mixed with fresh SBM to reach final compound concentration 1 μM and dosed only on the apical side of the monolayer (total volume 200 μl). DMSO at the equivalent concentration was used as the vehicle control. Duplicate wells were dosed for each compound. On day 8, apical media pH was measured by pH electrode, to determine the ability of example compounds to produce sustained inhibition of NHE3 activity in a human monolayer culture system by preventing proton secretion into the apical compartment.

For test [2], the system named is human duodenum monolayer culture. In words: Sustained inhibition of apical acid secretion in human organoid monolayer cell cultures (duodenum). It is filed as cell-based. The note with it: Homo sapiens. As to the method:
as §1, §3
as §2, with “Human duodenum” for “Human ileum”, “side. Duodenum” for “side. Ileum”, “with ENA” for “with ENRA”, “noggin,” for “noggin, R-spondin 1,”

Where only a bound is given, the exact number is not on record here.

With `N#Cc1cc(Cl)cc2c1C[C@H](N1CCNCC1)[C@H]2Oc1ccc(S(=O)(=O)NC2CCN(CCOCCNC(=O)NCCCCNC(=O)NCCOCCN3CCC(NS(=O)(=O)c4ccc(O[C@H]5c6cc(Cl)cc(C#N)c6C[C@@H]5N5CCNCC5)cc4)CC3)CC2)cc1` [Example 123, 4-([(1S,2S)-6-Chloro-4-cyano-2-(piperazin-1-yl)-2,3-dihydro-1H-inden-1-yl]oxy)-N-[1-(20-[4-([4-([(1S,2S)-6-chloro-4-cyano-2-(piperazin-1-yl)-2,3-dihydro-1H-inden-1-yl]oxy)phenyl]sulfonamide]piperidin-1-yl)-7,14-dioxo-3,18-dioxa-6,8,13,15-tetraazaicosyl]piperidin-4-yl)benzenesulfonamide], the inhibition at 1 µM in test [1] and in test [2] was > 70% throughout.

`O=C(NCCCCNC(=O)NCCOCCN1CC[C@@H](NS(=O)(=O)c2ccc(O[C@H]3c4cc(Cl)cc(Cl)c4C[C@@H]3N3CCNCC3)c(F)c2)C1)NCCOCCN1CC[C@@H](NS(=O)(=O)c2ccc(O[C@H]3c4cc(Cl)cc(Cl)c4C[C@@H]3N3CCNCC3)c(F)c2)C1` [Example 105, 4-([(1S,2S)-4,6-Dichloro-2-(piperazin-1-yl)-2,3-dihydro-1H-inden-1-yl]oxy)-N—[(R)-1-(20-[(R)-3-([4-([(1S2S)-4,6-dichloro-2-(piperazin-1-yl)-2,3-dihydro-1H-inden-1-yl]oxy)-3-fluorophenyl]sulfonamido)pyrrolidin-1-yl]-7,14-dioxo-3,18-dioxa-6,8,13,15-tetraazaicosyl)pyrrolidin-3-yl]-3-fluorobenzenesulfonamide; tetra(trifluoroacetate)]: the inhibition at 1 µM in test [1] and in test [2] was > 70% in each case.

`CN(C)[C@H]1CCCN([C@H]2Cc3c(C#N)cc(Cl)cc3[C@@H]2Oc2ccc(S(=O)(=O)NCCOCCOCCNC(=O)NCCCCNC(=O)NCCOCCOCCNS(=O)(=O)c3ccc(O[C@H]4c5cc(Cl)cc(C#N)c5C[C@@H]4N4CCC[C@H](N(C)C)C4)cc3)cc2)C1` [Example 122, 4-([(1S,2S)-6-Chloro-4-cyano-2-[(S)-3-(dimethylamino)piperidin-1-yl]-2,3-dihydro-1H-inden-1-yl]oxy)-N-[26-([4-([(1S,2S)-6-chloro-4-cyano-2-[(S)-3-(dimethylamino)piperidin-1-yl]-2,3-dihydro-1H-inden-1-yl]oxy)phenyl]sulfonamido)-10,17-dioxo-3,6,21,24-tetraoxa-9,11,16,18-tetraazahexacosyl]benzenesulfonamide]: the inhibition at 1 µM in test [1] and in test [2] was > 70% in each case.

Regarding `N#Cc1cc(Cl)cc2c1C[C@H](N1CCNCC1)[C@H]2Oc1ccc(S(=O)(=O)N[C@H]2CCN(CCOCCNC(=O)NCCCCNC(=O)NCCOCCN3CC[C@H](NS(=O)(=O)c4ccc(O[C@H]5c6cc(Cl)cc(C#N)c6C[C@@H]5N5CCNCC5)c(F)c4)C3)C2)cc1F` [Example 110, 4-([(1S,2S)-6-Chloro-4-cyano-2-(piperazin-1-yl)-2,3-dihydro-1H-inden-1-yl]oxy)-N—[(S)-1-(20-[(S)-3-[(4-([(1S,2S)-6-chloro-4-cyano-2-(piperazin-1-yl)-2,3-dihydro-1H-inden-1-yl]oxy)-3-fluorophenyl)sulfonamide)pyrrolidin-1-yl]-7,14-dioxo-3,18-dioxa-6,8,13,15-tetraazaicosyl)pyrrolidin-3-yl]-3-fluorobenzenesulfonamide; tetra(trifluoroacetate)], the inhibition at 1 µM in test [1] and in test [2] was > 70% each time.

`N#Cc1cc(Cl)cc2c1C[C@H](N1CCNCC1)[C@H]2Oc1ccc(S(=O)(=O)N[C@H]2CCN(CCOCCNC(=O)NCCCCNC(=O)NCCOCCN3CC[C@H](NS(=O)(=O)c4ccc(O[C@H]5c6cc(Cl)cc(C#N)c6C[C@@H]5N5CCNCC5)cc4)C3)C2)cc1` [Example 107, 4-([(1S,2S)-6-Chloro-4-cyano-2-(piperazin-1-yl)-2,3-dihydro-1H-inden-1-yl]oxy)-N—[(S)-1-(20-[(S)-3-([4-([(1S,2S)-6-chloro-4-cyano-2-(piperazin-1-yl)-2,3-dihydro-1H-inden-1-yl]oxy)phenyl]sulfonamido)pyrrolidin-1-yl]-7,14-dioxo-3,18-dioxa-6,8,13,15-tetraazaicosyl)pyrrolidin-3-yl]benzenesulfonamide; tetra(trifluoroacetate)]: the inhibition at 1 µM in test [1] and in test [2] was > 70% throughout.

In the case of `N#Cc1cc(Cl)cc2c1C[C@H](N1CCNCC1)[C@H]2Oc1ccc(S(=O)(=O)N[C@@H]2CCN(CCOCCNC(=O)NCCCCNC(=O)NCCOCCN3CC[C@@H](NS(=O)(=O)c4ccc(O[C@H]5c6cc(Cl)cc(C#N)c6C[C@@H]5N5CCNCC5)c(F)c4)C3)C2)cc1F` [Example 109, 4-([(1S,2S)-6-Chloro-4-cyano-2-(piperazin-1-yl)-2,3-dihydro-1H-inden-1-yl]oxy)-N—[(R)-1-(20-[(R)-3-[(4-([(1S,2S)-6-chloro-4-cyano-2-(piperazin-1-yl)-2,3-dihydro-1H-inden-1-yl]oxy)-3-fluorophenyl)sulfonamide)pyrrolidin-1-yl]-7,14-dioxo-3,18-dioxa-6,8,13,15-tetraazaicosyl)pyrrolidin-3-yl]-3-fluorobenzenesulfonamide; tetra(trifluoroacetate)], the inhibition at 1 µM in test [1] and in test [2] was > 70% each time.

For the molecule `N#Cc1cc(Cl)cc2c1C[C@H](N1CCCNCC1)[C@H]2Oc1ccc(S(=O)(=O)N[C@H]2CCN(CCOCCNC(=O)NCCCCNC(=O)NCCOCCN3CC[C@H](NS(=O)(=O)c4ccc(O[C@H]5c6cc(Cl)cc(C#N)c6C[C@@H]5N5CCCNCC5)cc4)C3)C2)cc1` [Example 126, 4-([(1S,2S)-6-Chloro-4-cyano-2-(1,4-diazepan-1-yl)-2,3-dihydro-1H-inden-1-yl]oxy)-N—[(S)-1-(20-[(S)-3-([4-([(1S,2S)-6-chloro-4-cyano-2-(1,4-diazepan-1-yl)-2,3-dihydro-1H-inden-1-yl]oxy)phenyl]sulfonamido)pyrrolidin-1-yl]-7,14-dioxo-3,18-dioxa-6,8,13,15-tetraazaicosyl)pyrrolidin-3-yl]benzenesulfonamide], the inhibition at 1 µM in test [1] and in test [2] was < 50% throughout.

For the origin of these results see US11242337B2, “Compounds useful for treating gastrointestinal tract disorders” (Ardelyx, Inc., priority 2017, dated 2022).
